Data: US20060024691A1, “Novel pathways in the etiology of cancer” (Buck Institute for Age Research, priority 2004, published 2006)
Where two headings read alike, the source gives them in different places.

How the values were obtained:
NF-κB p50 = assay: Nuclear translocation of NF-κB p50 in MCF-7 cultures; type: cell-based, human; conditions: 10 μM, 30 min
[1] = tested on: p50 and p65 NFκB subunits; assay: Immunoblot of nuclear p50 and p65 NFκB subunits in MCF-7 cells; type: cell-based, human; conditions: MCF-7, menadione 100 μM × 30 min
Protocol: PS-341 was kindly provided by Millennium Pharmaceuticals Inc. (Cambridge, Mass.). […] For assessment of combined treatment effects on cell viability, 2×10^4 cells (MCF-7, MCF-7/HER2, BT474) grown in 24-well plates were first treated with tamoxifen (dissolved in ethanol) and/or parthenolide (dissolved in DMSO); for the combination treatment pathenolide was added 4 h before addition of tamoxifen. Cell viability was measured 18 h after tamoxifen treatment using the sulforhodamine B (SRB) assay (Skehan, et al. 1990). Briefly, cells fixed with trichloroacetic acid were stained for 30 min with 0.4% SRB dissolved in 1% acetic acid. Unbound dye was removed by four washes with 1% acetic acid, and protein-bound dye was extracted with 10 mM unbuffered Tris base [tris(hydroxymethyl)aminomethane] for determination of optical density at 564 nm.
Fractionation of control and treated cells into cytoplasmic and nuclear extracts was performed as previously described (Dignam et al., 1983), with minor modification. Cells harvested on ice were washed twice with cold PBS, scraped and resuspended in 1.0 ml hypotonic buffer (20 mM HEPES, pH 7.0; 10 mM KCl; 1 mM MgCl2; 0.1% Triton X-100; 20% glycerol; 0.5 mM DTT) containing a cocktail of protease inhibitors (Mini CompleteTM protease inhibitors, Roche Diagnostics, Mannheim, Germany). The harvested cells were Dounce homogenized on ice, the mixture centrifuged at 3,000 rpm at 4° C. (5 min), and the cytoplasmic fraction separated from the nuclear pellet which was resuspended in elution buffer (20 mM HEPES, pH 7.0; 10 mM KCl; 1 mM MgCl2; 0.42 M NaCl; 0.1% Triton X-100; 20% glycerol; 0.5 mM DTT), supplemented with protease inhibitors. After 20 min at 4° C. the buffered mixture was centrifuged at 14,000 rpm at 4° C. (10 min) to obtain solubilized nuclear extracts which were then stored in aliquots at −80° C. after protein determination (Bradford; BioRad, Hercules, Calif.) and for subsequent NFkB DNA-binding assays.
Antibodies against p50 NFκB, p65 NFκB, IκB, and β-actin proteins were commercially obtained (Santa Cruz Biotechnology, Santa Cruz, Calif.; and Abcam Inc., Cambridge, Mass.). […]; 4% SDS; 20% glycerol; and 10% 2-mercaptoethanol) and resolved by electrophoresis in 4-12% Bis-Tris SDS gradient gels in morpholinepropane sulfonic acid (MOPS) buffer. Separated proteins were transferred onto polyvinylidene difluoride membranes (Millipore Co., Billerica, Mass.), blocked with 5% non-fat milk in PBS containing 0.1% Tween-20, and membranes immunoblotted with the indicated antibodies in blocking solution. […]

[2] = tested on: ERα Ser-167 (67 kD ERα and 52 kD ERα variant); type: cell-based, human; conditions: MCF7 nuclear extracts, 30 min
Protocol: (§1) Human breast cancer cell lines MCF7 and T47D were obtained from the American Type Culture Collection (ATCC). MCF7 cells were maintained in Dulbecco's Modification of Eagle's Medium (Cellgro) supplemented with 10% fetal bovine serum (Cellgro), 1% penicillin/streptomycin (Cellgro) and 10 μg/ml insulin (Sigma). T47D cells were maintained in RPMI (Cellgro) supplemented with 10% fetal bovine serum, 1% penicillin/streptomycin and 10 μg/ml insulin. Treatment conditions for both cell lines involved plating ˜1×10^6 cells in normal media onto 10 cm dishes, attachment and growth for 24 hours followed by a change to estrogen-free culture conditions (phenol red-free DME H-16 supplemented with 10% charcoal stripped serum, 1% penicillin/streptomycin and 10 μg/ml insulin) for an additional 24 hours. Cells were then treated as indicated for 30 minutes before extract preparation. Indicated conditions involved 30 minute pretreatments.
(§2) Following aspiration of the media and one ice cold PBS wash, cells growing on 10 cm dishes were harvested using a cell scraper and 0.7 ml of ice cold cell lyses buffer ([…], 1.5 mM MgCl2, […] KCl, 1 mM DTT, […] NaFl, 5% glycerol, 0.45% NP40 (Igepal, Sigma) and mincomplete protease inhibitors (Roche)). […] For preparation of high-salt nuclear extracts (nucleoplasm), isolated nuclei were resuspended for 20 minutes in ice cold extraction buffer (0.4 M NaCl, 25 mM Tris pH 7.5, 1 mM DTT, 20% glycerol, 10 mM NaFl and min-complete protease inhibitors (Roche)) followed by a 4° C. centrifugation at 16,000×g for 15 minutes.
(§3) Equal amounts of protein from the various extracts were mixed with 2× SDS sample buffer (125 mM Tris pH6.8, 20% glycerol, 2% SDS, 0.28 M 2-mercaptoethanol and0.5% Bromphenol Blue), heated for 5 minutes at 90° C. and electrophoresed on NuPAGE 4-12% Bis-Tris gels (Invitrogen) using NuPAGE MOPS SDS running buffer (Invitrogen) and full range Rainbow recombinant protein molecular weight markers (Amersham Pharmacia). […] Membranes were then blocked for 30 minutes in blocking buffer (150 mM NaCl, 20 mM Tris pH 7.5, 0.3% Tween-20 and 4% Nonfat dry milk powerby weight).

[3] = tested on: ERα Ser-118 (67 kD ERα and 52 kD ERα variant); type: cell-based, human; conditions: for Ser-118 phosphorylation of ER induced by treatment: MCF-7/T47D cells, charcoal-stripped media, 30 min, menadione 100 μM, estradiol 10 nM, other quinones at equitoxic doses
Protocol: as §1, §2, §3

ERα = conditions: estrogen-free culture, 30 min, K3 100 μM, estradiol 10 nM
Protocol: as §1
(§4) For preparation of high-salt nuclear extracts (nucleoplasm), isolated nuclei were resuspended for 20 minutes in ice cold extraction buffer (0.4 M NaCl, 25 mM Tris pH 7.5, 1 mM DTT, 20% glycerol, 10 mM NaFl and min-complete protease inhibitors (Roche)) followed by a 4° C. centrifugation at 16,000×g for 15 minutes.

ERK1/ERK2 = assay: MAPK activation: ERK1/ERK2 phosphorylation, Western blot; type: cell-based, human; conditions: MCF7 cells, 30 minutes
Protocol: as §1, §4
Membranes were then blocked for 30 minutes in blocking buffer (150 mM NaCl, 20 mM Tris pH 7.5, 0.3% Tween-20 and 4% Nonfat dry milk powerby weight).

NF-κB p65 = assay: Nuclear translocation of NF-κB p65 in MCF-7 cultures; type: cell-based, human; conditions: 10 μM, 30 min

In the case of `CC1=CC(=O)c2ccccc2C1=O` [menadione, 2-methyl-1,4-naphthoquinone], the “increase in nuclear translocation of NF-κB p50 vs control treated cells” value (NF-κB p50) is reported as > 3 fold, the “nuclear NFκB subunits p50 and p65 after menadione treatment” value [1] is reported as “increases in the nuclear NFκB subunits, p50 and p65” and the “Ser-167 phosphorylation of ERα induced by treatment” value [2] is reported as “Ser-167 phosphorylation only on the 52 kD ERα nuclear variant”. For the same compound, the “Ser-118 phosphorylation of ER induced by treatment” value [3] was “induced Ser-118 phosphorylation”, the “Ser-118 phosphorylation of ER induced by treatment” value ([3]; listed as K3) was “contained both 67 kD and 52 kD p-Ser-118 ERα” and the “ER isoform activation on longer exposure” value ([3]; menadione exposures 4-6 hr) was “further enhanced activation of the ˜52 kDa delta7 ER isoform while diminishing that of 67 kDa ER”. The “nuclear translocation of ERα” value (ERα) was “nuclear translocation of 67 kDa (wild-type) ER”, the “nuclear translocation of ERα” value (ERα; listed as K3) was “majority of this cytoplasmic ERα has translocated to the nucleus” and the “ERK1/ERK2 phosphorylation induced by treatment” value (ERK1/ERK2) was “high level of ERK1/ERK2 phosphorylation”. The “increase in nuclear translocation of NF-κB p65 vs control treated cells” value (NF-κB p65) was > 3 fold.
